Entries after “also recorded” stand apart in the source; their conditions may differ.
What was measured:
Format in all cases: in vivo
[1] = system: bronchoalveolar lavage fluid (BALf); experiment: Total protein (BCA) and TNF-α in lamb bronchoalveolar lavage fluid
Source text: ELISA and BCA assay methods. BCA assay: The lamb BAL fluid samples (10d and 90d terminal studies) were centrifuged to remove the cell pellets, and the supernatant was used to assess the total protein using the Pierce™ BCA Protein Assay Kits, which were read using a BioTek synergy H1 microplate reader (Fisher Scientific, Toronto, ON, Canada).
ELISA: The serum and bronchoalveolar lavage (BAL) fluid samples were used to quantify cytokine and soluble CD163 (sCD163) concentrations. The ELISA experiment analysis used commercially available ELISA kits, which were quantified using a plate reader. The inventors used GraphPad Prism V. 10.4. All sheep (ovine) ELISA kits were used within the expiry dates. Ovine IL-1β(Cat #ELO-IL1β), and ovine IL-6 (Cat #ELO-IL6) ELISA kits were purchased from RayBiotech, Peachtree Corners, GA, USA, sheep IL-10 (Cat #E12817Sh-96) was purchased from Lifeome Biolabs, Oceanside, CA, sheep CD163 (cat #MBS9364870) was purchased from MyBioSource, Inc. San Diego, CA, and Pierce™ BCA Protein Assay Kit (Cat #23227) from Thermo Fischer Scientific, Rockford, IL.

[2] = system: preterm lamb model of BPD; experiment: Neurobehavioral assessments (curiosity, socialization, learning and memory)
Source text: Neurobehavioral assessments. The inventors adapted tests for curiosity, using novel objects of different colors and shapes; socialization, using a nonreflective (dull) surface versus a reflective surface (mirror); and learning and memory, using a maze with a reward.^20 These tests were adapted from other studies that assessed the neurobehavior of sheep.^20-25 Assessments were made over 2 weeks.
Habituation (open-field for exploration; days 1 and 2) was used to familiarize the lambs with the test, rest rooms, and tender. Habituation was accomplished on days 1 and 2 by a 10-minute stay in the test room, a 30-minute rest period in the rest room, and another 10-minute stay in the test room. Habituation was repeated the next day.
Tests were (1) curiosity, using novel objects; (2) socialization, using a non-reflective surface and a reflective surface; and (3) learning and memory (using a maze with a milk bottle reward). The tests were done on sequential days over two weeks. Tests were trials of 10-min each, with a 30-min rest period between trials. Each 10-min trial was video recorded, using the Noldus System (model EthoVision XT 17 with the Physiology Integration Module; Noldus Information Technology Inc., Leesburg, VA). The test room had tape on the floor that divided the floor into 9 zones for identification of movement direction and speed, inactivity, etc., in video playback. A ceiling camera recorded each test session. The camera was connected to a dedicated computer with the Noldus software to document lamb activity and time. The novel objects test required four trials on day 3. Trials 1 and 2 used two objects (brown and blue bowls) affixed to the floor. For trial 3, before the lamb was returned to the test room, the brown bowl was replaced with a novelx object (pink pitcher). For trial 4, before the lamb was returned to the test room, a new object (yellow ball) was added with the blue bowl and pink pitcher (3 objects). Analysis was the number of times and the time spent investigating each object.
The socialization test required two trials each on days 4 and 5. Two metallic surfaces were attached to a wall, one with a non-reflective and the other with a reflective surface. Analysis was the number of times and the time spent investigating each surface.
The following week, the learning and memory test required two trials on day 6. A maze made of solid metal panels was set up in the test room. A tender was in one corner of the maze, holding a bottle of milk, the reward for completing the maze. Once the tender was in place, the lamb entered the test room. Analysis was the time to reach the milk bottle reward.

[3] = system: TLR4 and pathway-related cytokines, apoptosis, proliferation and permeability markers in lung tissue homogenates; experiment: Immunoblot and RT-PCR of lamb lung tissue homogenates
Procedure: For molecular analyses, the right caudal lobe was cut into 1 cm^3 pieces (˜1 g each), again using systematic, uniform, random sampling methods. The lung pieces were from peripheral tissue devoid of visceral pleura and central airways, vessels, and connective tissue. The pieces were snap-frozen in liquid nitrogen and stored at −80° C. Homogenates of frozen tissue pieces were used for quantitative real-time RT-PCR and immunoblot analyses. Expression of mRNA was normalized to GAPDH. For immunoblot analysis, cleaved caspase 3 was used (EnzoADI-AAP-113, Enzo Life Sciences, Inc., Farmingdale, NY), PCNA (ab2426, Abcam, Cambridge, MA), and VEGF-R2 (sc-393163, Santa Cruz Biotechnology, Dallas, TX) proteins. Positive controls for immunoblot were the respective native proteins. Protein abundance was normalized, using Memcode (P124585, Fisher Scientific, Pittsburgh, PA).

[4] = system: mice; experiment: Ovalbumin vaccination mouse model with CFA/IFA; conditions: AVR-48 along with Ovalbumin±CFA/IFA, day 28
Procedure: Study Design: N=4/per group (Balbc/6J, 6-7 months old). Group-1: (OVA+CFA) 1st dose; (OVA+IFA) 2nd dose; OVA-3rd dose; Group 2: OVA+CFA+AVR-48 1st dose; OVA+IFA+AVR-48 2nd dose; OVA+AVR-48 3rd dose; and Group 3: OVA+IFA+AVR48 1st dose; OVA+IFA+AVR-48 2nd dose; OVA+AVR-48 3rd dose.
Outcome measures: Immune cell quantification (FACS) in the spleen and IgG in serum (ELISA).
In vivo study: In one study, C57Bl/6J mice (n=4/group) were dosed intramuscularly (IM) with either complete Freund's adjuvant (CFA) or incomplete Freund's adjuvant (IFA) along with AVR-48 for a 28-day study using a prime-boost-boost regimen. In the second study, mice were dosed with MPLA and Flu-peptide using only the priming dose regimen (no booster). Splenic immune cells and plasma immunoglobin concentrations were assessed at day 28.

[5] = 2 moC PNA (d90), FPT lambs vs FPT vehicle
[6] = late-stage study, FPT lambs vs FPT vehicle

In the case of `CC(=O)NC1C(Oc2ccc([N+](=O)[O-])cc2)OC(CO)C(O)C1O` (stereo not shown) [AVR-48], the “total protein concentration in BALf” value ([1]; 10 days, PT lambs vs vehicle) is reported as “decreased total protein concentration”, the “total protein concentration in BALf” value ([1]; 90 days, FPT lambs) is reported as “no difference was observed” and the “TNF-α concentration in BALf” value ([1]; early and late-stage studies) is reported as “No significant change”. The “curiosity and socialization outcomes (time at novel object, dull surface, mirror)” value ([2]; 1 moC PNA (day of life 60), among groups) was “No differences were detected”, the “time at novel object (curiosity test)” value ([2]; 2 moC PNA (d90), FPT lambs 3.0 mg/kg/dose vs FPT vehicle) was “significantly less time; also recorded: significantly shorter” and the “time at the dull surface (socialization test)” value [2, 5] was “less time (not significant); also recorded: significantly shorter”. The “time at the mirror (reflective surface, socialization test)” value [2, 5] was “more time (not significant); also recorded: significantly longer”, the “time to navigate the maze to reach the milk bottle reward (learning and memory test)” value [2, 5] was “significantly faster; also recorded: less (not significant)” and the P53 in lung ([3]; 90-day study, vs FPT vehicle lamb lungs) was “higher”. For the same molecule, the “cleaved caspase-3 protein levels in lung” value ([3]; DOL10, PT lambs vs vehicle) was “significantly lower level”, the “mRNA levels for p53, caspase-3, c-Myc, and TGF-β in lung” value ([3]; DOL10, PT lambs vs vehicle) was “No significant difference” and the “relative mRNA levels of TLR4 and cytokines in lung” value ([3]; PT lambs vs control, FPT and term lambs) was “No differences were found”. The “protein concentration of TLR4 and pathway-related cytokines in lung tissue” value ([3]; early-stage study) was “no differences were detected”, the “VEGF-A protein level in lung” value ([3]; early-stage study, 10d, PT group vs vehicle) was “significant decrease” and the “TLR4 protein concentration (relative protein level) in lung tissue” value ([3]; late-stage study (DOL90), FPT AVR-48 lambs) was 0.007±0.004. For the same molecule, the “TLR4 protein concentration in lung tissue vs vehicle” value ([3]; late-stage study (DOL90), FPT lambs vs FPT vehicle) was “significantly lower”, the “mRNA expression and protein level for VEGF-A, VEGFR2, and SP-B in lung” value ([3]; late-stage study, 90d, FPT AVR-48 vs FPT vehicle) was “no significant difference” and the “IL-6 protein in lung tissue” value [3, 6] was “appeared lower (not significant)”. The “IL-10 protein concentration in lung tissue” value [3, 6] was “appeared higher (not significant)”, the “TNF-α protein in lung tissue” value [3, 6] was “appeared lower (not significant)” and the “CD138+/CD38+/CD27+ plasma cells in mouse spleen” value [4] was “Increased”. For the same molecule, the IgG in serum [4] was “Increased”.

Source: patent US20250332183A1, “COMPOSITIONS AND METHODS FOR THE STIMULATION OF INTERMEDIATE MACROPHAGES AND TREATMENTS THEREWITH” (priority 2024, published 2025)
